Data published in publication PMC4139341 (PLoS ONE, 2014).

How the values were obtained:
[1] = target: AChE activity in neuro2a cells (Mus musculus, UniProt P21836); conditions: 25 µM and 60 µM protriptyline
Experimental: Murine neuro2a neuroblastoma cells were obtained from National Center for Cell Science, Pune, India. The cells were maintained in Dulbecco's modified Eagle's medium (DMEM) and 10% Fetal Bovine Serum (FBS). Cells were maintained at 37°C in humidified air containing 5% CO2 and were grown in monolayer cultures.

Aβ13–22 [2] = target: T1, Aβ13–22 (Homo sapiens, UniProt P05067); experiment: biochemical
Experimental: (§1) Aβ13–22 peptide ([…]), the aggregation prone region of Aβ, was synthesized from Thermo Fisher Scientific. Synthetic Aβ13–22 peptide was dissolved in 10% ammonium hydroxide and sonicated for 5 min. It was then diluted in 10 mM PBS, pH 7.0 to a final concentration of 200 µM.
Thioflavin T assay was performed on 7th day of incubation. 50 µl (25 µM) of Aβ13–22 was mixed with 150 µl of Thioflavin T (ThT) stock solution (50 µM ThT in PBS pH 7.0) and placed in 96-well plate (black with flat bottom, Cornings). Fluorescence emission was measured at 460–550 nm upon excitation at 440 nm. To account for background fluorescence, the fluorescence intensity measured from each control solution without Aβ was subtracted from each solution containing Aβ13–22.

Aβ13–22 [3] = target: T1, Aβ13–22
Experimental: as §1
Inhibition of aggregation/ glycation mediated aggregation of Aβ was detected by static light scattering method using a Perkin-Elmer Luminescence spectrometer LS50B. Both excitation and emission wavelengths were set at 400 nm. Excitation and emission slit width was set to 10 nm and 2.5 nm, respectively. Scattering was recorded for 60 sec.

Aβ13–22 [4] = target: T1, Aβ13–22; conditions: incubated 7 days, protriptyline 0.010 mM; ∼400 nm average without
Experimental: as §1

BACE-1 = BACE-1 (Homo sapiens, UniProt P56817); experiment: biochemical
Chain of BACE-1 (P56817 46-501): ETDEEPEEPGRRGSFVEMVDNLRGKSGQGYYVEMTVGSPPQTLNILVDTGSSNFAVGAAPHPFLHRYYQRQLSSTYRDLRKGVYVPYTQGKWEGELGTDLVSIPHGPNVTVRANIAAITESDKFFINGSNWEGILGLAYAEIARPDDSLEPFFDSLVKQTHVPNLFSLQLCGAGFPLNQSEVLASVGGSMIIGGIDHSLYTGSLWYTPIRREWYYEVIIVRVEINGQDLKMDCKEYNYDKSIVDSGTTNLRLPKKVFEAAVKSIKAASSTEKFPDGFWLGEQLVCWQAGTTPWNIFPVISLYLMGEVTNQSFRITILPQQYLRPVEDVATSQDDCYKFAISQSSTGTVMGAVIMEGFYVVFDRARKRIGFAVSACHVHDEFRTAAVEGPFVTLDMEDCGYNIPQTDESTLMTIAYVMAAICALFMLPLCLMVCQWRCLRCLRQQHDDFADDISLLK
Experimental: BACE-1 activity was studied in accordance with the manufacturer's instructions (Sigma). […] Negative control included all the reactants except BACE-1 enzyme. After 2 h, fluorescence emission was measured at 405 nm upon excitation at 320 nm.
(§2) Lineweaver-Burk double reciprocal plot was plotted in order to determine the Km. […] The Ki was calculated directly from IC50 value using Cheng-Prussoffs classical equation [45]. [drawing 1]
(§3) The reciprocals of reaction rate (1/v) for each inhibitor concentration were plotted against the reciprocals of the substrate concentrations (1/S).

Bovine trypsin = Bovine trypsin (Bos taurus, UniProt P00760); conditions: 0.1 and 0.5 mM
Chain of Bovine trypsin (P00760 24-246): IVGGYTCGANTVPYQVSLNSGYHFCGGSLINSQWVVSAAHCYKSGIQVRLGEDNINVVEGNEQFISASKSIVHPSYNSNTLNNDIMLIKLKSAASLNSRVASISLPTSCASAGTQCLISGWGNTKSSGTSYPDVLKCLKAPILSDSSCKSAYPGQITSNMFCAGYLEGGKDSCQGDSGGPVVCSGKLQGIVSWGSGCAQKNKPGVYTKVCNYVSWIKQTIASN
Experimental: Activity of Bovine trypsin was estimated using enzyme-specific chromogenic substrate BApNA [46]. […] Further, 1 ml BApNA was added to the reaction mixture and incubated for 10 min at 37°C. The reaction was terminated by addition of 200 µl of 30% acetic acid and absorbance was measured at 410 nm.

ADAM17 = ADAM17 (Homo sapiens, UniProt P78536); experiment: biochemical; conditions: read-out: inhibition of ADAM 17
Chain of ADAM17 (P78536 215-824, species assumed): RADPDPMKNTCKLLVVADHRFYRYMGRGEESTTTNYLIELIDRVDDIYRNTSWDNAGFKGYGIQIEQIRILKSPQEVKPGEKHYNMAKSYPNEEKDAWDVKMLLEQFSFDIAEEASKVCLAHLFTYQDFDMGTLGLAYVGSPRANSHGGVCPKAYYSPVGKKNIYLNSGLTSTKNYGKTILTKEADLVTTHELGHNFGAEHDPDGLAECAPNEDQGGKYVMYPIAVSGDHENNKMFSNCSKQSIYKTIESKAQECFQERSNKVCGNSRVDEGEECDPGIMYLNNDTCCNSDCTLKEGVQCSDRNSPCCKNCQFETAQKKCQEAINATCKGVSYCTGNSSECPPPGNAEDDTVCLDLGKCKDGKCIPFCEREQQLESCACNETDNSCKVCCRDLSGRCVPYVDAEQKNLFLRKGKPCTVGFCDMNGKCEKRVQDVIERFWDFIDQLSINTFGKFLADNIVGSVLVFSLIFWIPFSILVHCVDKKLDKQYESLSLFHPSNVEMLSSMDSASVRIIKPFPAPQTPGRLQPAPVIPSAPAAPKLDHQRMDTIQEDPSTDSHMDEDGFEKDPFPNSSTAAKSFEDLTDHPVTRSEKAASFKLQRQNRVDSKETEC
Experimental: Fluorescence was measured at 328 nm and 420 nm for excitation and emission respectively.

glycation of Aβ13–22 = glycation of Aβ13–22 (Homo sapiens, UniProt P05067); conditions: excitation 370 nm, emission 440 nm; 0.1 M glucose, 7 days
Experimental: The details of insulin and BSA glycation are described in Method S1. […] These samples were further used to study glycation mediated Aβ aggregation by different assays.
Glycation associated fluorescence of Aβ was measured in amyloid, glycated amyloid treated with or without protryptiline at 370 nm excitation and emission was scanned from 400–550 nm.

[5] = target: glycation of BSA (Bovine Serum Albumin) (Bos taurus, UniProt P02769); conditions: AGE fluorescence and Thioflavin T fluorescence
Chain of glycation of BSA (Bovine Serum Albumin) (P02769 25-607): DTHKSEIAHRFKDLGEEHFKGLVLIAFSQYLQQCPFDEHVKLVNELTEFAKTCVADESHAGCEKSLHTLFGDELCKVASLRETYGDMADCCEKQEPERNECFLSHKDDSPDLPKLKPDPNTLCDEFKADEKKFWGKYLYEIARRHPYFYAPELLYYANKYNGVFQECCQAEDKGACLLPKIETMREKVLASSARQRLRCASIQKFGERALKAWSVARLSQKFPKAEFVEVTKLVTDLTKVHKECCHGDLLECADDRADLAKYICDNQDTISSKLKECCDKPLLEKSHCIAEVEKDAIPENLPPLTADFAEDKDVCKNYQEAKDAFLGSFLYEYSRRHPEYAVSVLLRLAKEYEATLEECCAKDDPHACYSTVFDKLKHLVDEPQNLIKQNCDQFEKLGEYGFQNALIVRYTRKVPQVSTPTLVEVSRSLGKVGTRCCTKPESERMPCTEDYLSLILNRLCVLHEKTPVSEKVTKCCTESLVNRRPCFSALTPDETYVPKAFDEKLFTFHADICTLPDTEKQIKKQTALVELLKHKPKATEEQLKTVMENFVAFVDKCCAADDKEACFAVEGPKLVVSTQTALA
Experimental: (§4) 1.5mg/ml insulin and 0.1 M glucose were incubated with various concentrations of protryptiline in 10 mM PBS, pH 7.0 for 7 days. These samples were further used to study glycation inhibition by MALDI. BSA glycation reaction was performed in a similar manner with 1mg/ml BSA concentration and inhibition was studied by AGE fluorescence and Thioflavin T assay ^1.

glycation of insulin = glycation of insulin (Homo sapiens, UniProt P01308); conditions: MALDI; 500 µM and 1000 µM protriptyline
Chain of glycation of insulin (P01308 25-54 limits assumed): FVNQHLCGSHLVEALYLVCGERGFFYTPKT
Experimental: as §4

AChE = AChE (Electrophorus electricus, UniProt O42275); experiment: biochemical
Chain of AChE (O42275 24-633): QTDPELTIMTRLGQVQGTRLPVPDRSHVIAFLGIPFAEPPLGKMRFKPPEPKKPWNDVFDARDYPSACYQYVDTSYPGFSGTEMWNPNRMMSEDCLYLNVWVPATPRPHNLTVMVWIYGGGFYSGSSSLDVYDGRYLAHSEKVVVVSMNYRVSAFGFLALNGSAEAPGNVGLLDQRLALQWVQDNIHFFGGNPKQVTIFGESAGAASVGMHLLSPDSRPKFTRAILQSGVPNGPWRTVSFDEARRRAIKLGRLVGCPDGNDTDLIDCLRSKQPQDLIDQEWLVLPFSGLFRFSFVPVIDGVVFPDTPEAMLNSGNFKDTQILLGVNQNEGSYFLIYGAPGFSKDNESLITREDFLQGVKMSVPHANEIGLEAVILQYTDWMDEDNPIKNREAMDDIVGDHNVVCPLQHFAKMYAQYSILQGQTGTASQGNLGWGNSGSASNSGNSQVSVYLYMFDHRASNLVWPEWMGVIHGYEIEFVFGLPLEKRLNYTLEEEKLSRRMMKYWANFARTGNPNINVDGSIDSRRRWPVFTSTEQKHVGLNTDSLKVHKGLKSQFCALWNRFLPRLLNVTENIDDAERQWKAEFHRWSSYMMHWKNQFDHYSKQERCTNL
Experimental: The modified method of Ellman et al. was adopted to measure AChE activity. Briefly, 25 µl (0.3 U/ml) AChE from Electric eel fish (Electrophorus electricus) was incubated with and without different concentrations of drugs selected from Molecular Docking studies. The reaction was carried out for 15 min at 25°C. […] Total volume of the reaction was made up to 1 ml by Tris buffer, pH 8.0. ATCI hydrolysis was measured by colored product formation, 5-thio-2-nitrobenzoate anion by reaction between DTNB and thiocholine, a hydrolysis product of ATCI. The formation of the colored product was measured at 405 nm wavelength after 30 min. The background was determined from negative controls (omission of AChE enzyme).
as §2, §3

Chain of AChE activity in neuro2a cells (P21836 32-614): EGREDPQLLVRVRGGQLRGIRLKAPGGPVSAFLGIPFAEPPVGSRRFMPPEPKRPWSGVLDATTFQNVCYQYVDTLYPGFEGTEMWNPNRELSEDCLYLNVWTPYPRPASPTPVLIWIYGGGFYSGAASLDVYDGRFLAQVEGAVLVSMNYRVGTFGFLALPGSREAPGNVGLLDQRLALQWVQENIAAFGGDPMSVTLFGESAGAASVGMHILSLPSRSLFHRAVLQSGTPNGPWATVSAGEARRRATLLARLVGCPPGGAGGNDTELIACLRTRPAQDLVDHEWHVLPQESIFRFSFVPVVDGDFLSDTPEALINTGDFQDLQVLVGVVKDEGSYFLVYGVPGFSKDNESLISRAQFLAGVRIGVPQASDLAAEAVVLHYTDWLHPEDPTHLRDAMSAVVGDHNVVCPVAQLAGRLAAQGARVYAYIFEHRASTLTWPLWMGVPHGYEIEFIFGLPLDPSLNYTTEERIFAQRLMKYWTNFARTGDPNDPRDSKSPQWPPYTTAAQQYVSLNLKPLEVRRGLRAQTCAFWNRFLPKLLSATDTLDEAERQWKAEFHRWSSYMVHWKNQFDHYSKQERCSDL

CNCCCC1c2ccccc2C=Cc2ccccc21 [protriptyline]
AChE activity in neuro2a cells [1]: concentration dependent decrease in AChE activity | IC50 (Aβ13–22 [2]): < 150 µM | Thioflavin T fluorescence of Aβ13–22 (Aβ13–22 [2]): Concentration dependent decrease in Thioflavin T fluorescence | lag time of nucleation phase of Aβ13–22 aggregation (ThT fluorescence) (Aβ13–22 [2]): ~50 h | light scattering of Aβ aggregates (Aβ13–22 [3]): reduced the light scattering in a concentration dependent manner | height of Aβ13–22 aggregates (AFM) (Aβ13–22 [4]): ~100 nm | Ki (BACE-1): 5 µM | IC50 (BACE-1; IC50 for BACE1, summary statement): < 150 µM | IC50 (BACE-1; IC50 for BACE-1, 2 h at 37°C): ~25 µM | type of BACE-1 inhibition (BACE-1; Lineweaver-Burk plot, 15 µM protriptyline): competitive inhibition | inhibition of trypsin activity (Bovine trypsin): not able to inhibit trypsin activity | inhibition at 100 µM (ADAM17): ~3% | inhibition at 500 µM (ADAM17): ~25% | glycation associated fluorescence of Aβ (glycation of Aβ13–22): reduced by protriptyline in a concentration dependent manner | glycation of BSA [5]: inhibited glycation | glycation of insulin (glycation of insulin): inhibited glycation of insulin

CNCCC=C1c2ccccc2CCc2ccccc21 [nortriptyline]
IC50 (AChE): 135 µM

CN(C)CCC=C1c2ccccc2CCc2ccccc21 [amitriptyline]
IC50 (AChE): 600 µM
